Reference: US20240082296A1, “TREATMENT OF MUSCLE ATROPHY USING DEXTRAN SULFATE” (TX MEDIC AB, priority 2020, published 2024)
Marks after values point to notes of the source that are not given here.

Test system: severe traumatic brain injury (sTBI) in rats
Assay: HPLC of free amino acids and amino group containing compounds in rat brain after sTBI (Example 4)
Format: in vivo
Method: The effects of daily sub-cutaneous injections of dextran sulfate on glutamate excitotoxicity and mitochondrial function after severe traumatic brain injury (sTBI) in rats were evaluated by high-performance liquid chromatography (HPLC) analysis of frozen brain samples.
The experimental protocol used in this study was approved by the Ethical Committee of the Catholic University of Rome, according to international standards and guidelines for animal care. Male Wistar rats of 300-350 g body weight (b.w.) were fed with standard laboratory diet and water ad libitum in a controlled environment.
They were divided into three groups: • 1) n=6 animals subjected to sTBI, with drug administration after 30 minutes and sacrifice at 2 days post-TBI (Acute phase 1) • 2) n=6 animals subjected to severe-TBI, with drug administration after 30 minutes and sacrifice at 7 days post-TBI (Acute phase 2). • 3) n=6 animals subjected to severe-TBI, with drug administration after 3 days and sacrifice at 7 days post-TBI (Chronic phase).
As the anesthetic mixture, animals received 35 mg/kg b.w. ketamine and 0.25 mg/kg b.w. midazolam by i.p. injection. sTBI was induced by dropping a 450 g weight from 2 m height on to the rat head that had been protected by a metal disk previously fixed on the skull, according to the “weight drop” impact acceleration model (Marmarou et al., A new model of diffuse brain injury in rats. Part I: Pathophysiology and biomechanics. J Neurosurg. 1994; 80: 291-300). […] At the end of each period of treatment, rats were anesthetized again and then immediately sacrificed.
The drug treatment was a subcutaneous injection of 0.5 ml of dextran sulfate (Tikomed AB, Viken, Sweden, WO 2016/076780; 15 mg/kg) and administered according to the aforementioned schematic protocol.
An in vivo craniectomy was performed in all animals during anesthesia, after carefully removing the rat's skull, the brain was exposed and removed with a surgical spatula and quickly dropped in liquid nitrogen. After the wet weight (w.w.) determination, tissue preparation was affected as previously disclosed (Tavazzi et al., Cerebral oxidative stress and depression of energy metabolism correlate with severity of diffuse brain injury in rats. Neurosurgery. 2005; 56: 582-589; Vagnozzi et al., Temporal window of metabolic brain vulnerability to concussions: mitochondrial-related impairment-part I. Neurosurgery. 2007; 61: 379-388; Tavazzi et al., Temporal window of metabolic brain vulnerability to concussions: oxidative and nitrosative stresses-part II. Neurosurgery. 2007; 61: 390-395; Amorini et al., Severity of experimental traumatic brain injury modulates changes in concentrations of cerebral free amino acids. J Cell Mol Med. 2017; 21: 530-542.). Briefly, whole brain homogenization was performed with 7 ml of ice-cold, nitrogen-saturated, precipitating solution composed by CH3CN+10 mM KH2PO4, pH 7.40, (3:1; v:v), and using an Ultra-Turrax set at 24,000 rpm/min (Janke & Kunkel, Staufen, Germany). After centrifugation at 20,690×g, for 10 min at 4° C., the clear supernatants were saved, pellets were supplemented with 3 ml of the precipitating solution and homogenized again as described above. A second centrifugation was performed (20,690×g, for 10 min at 4° C.), pellets were saved, supernatants combined with those previously obtained, extracted by vigorous agitation with a double volume of HPLC-grade CHCl3 and centrifuged as above. The upper aqueous phases containing water-soluble low-molecular weight compounds were collected, subjected to chloroform washings for two more times (this procedure allowed the removal of all the organic solvent and of any lipid soluble compound from the buffered tissue extracts), adjusted in volumes with 10 mM KH2PO4, pH 7.40, to have ultimately aqueous 10% tissue homogenates and saved at −80° C. until assayed. […]

[1] = Acute phase 1 (15 mg/kg s.c. 30 min after sTBI, sacrifice 2 days post-TBI)
[2] = Acute phase 2 (15 mg/kg s.c. 30 min after sTBI, sacrifice 7 days post-TBI)
[3] = Chronic phase (15 mg/kg s.c. 3 days after sTBI, sacrifice 7 days post-TBI)

dextran sulfate
cerebral ALA concentration [1]: 0.50 ± 0.12^a μmol/g (w.w.) | cerebral ARG concentration [1]: 0.13 ± 0.02^b,d μmol/g (w.w.) | cerebral ASN concentration [1]: 0.12 ± 0.02^i μmol/g (w.w.) | cerebral ASP concentration [1]: 2.40 ± 0.56^d,i μmol/g (w.w.) | cerebral CITR concentration [1]: 0.018 ± 0.004 µmol/g (w.w.) | cerebral GABA concentration [1]: 1.43 ± 0.25^a μmol/g (w.w.) | cerebral GLN concentration [1]: 4.78 ± 1.09^a μmol/g (w.w.) | cerebral GLU concentration [1]: 9.81 ± 1.66^i μmol/g (w.w.) | cerebral GLY concentration [1]: 0.83 ± 0.25^a,c μmol/g (w.w.) | cerebral HIS concentration [1]: 0.068 ± 0.015^b μmol/g (w.w.) | cerebral ILE concentration [1]: 0.038 ± 0.007 µmol/g (w.w.) | cerebral L-Cystat concentration [1]: 0.185 ± 0.031^b,c,i μmol/g (w.w.) | cerebral LEU concentration [1]: 0.021 ± 0.005^a,c μmol/g (w.w.) | cerebral LYS concentration [1]: 0.236 ± 0.057^b,d,h μmol/g (w.w.) | cerebral MET concentration [1]: 0.016 ± 0.005^d,j μmol/g (w.w.) | cerebral ORN concentration [1]: 0.014 ± 0.007 µmol/g (w.w.) | cerebral PHE concentration [1]: 0.031 ± 0.011^b,d μmol/g (w.w.) | cerebral SAH concentration [1]: 0.033 ± 0.008^b,c,j μmol/g (w.w.) | cerebral SER concentration [1]: 0.88 ± 0.25^a μmol/g (w.w.) | cerebral TAU concentration [1]: 4.86 ± 0.85^b μmol/g (w.w.) | cerebral THR concentration [1]: 0.92 ± 0.29^a μmol/g (w.w.) | cerebral TRP concentration [1]: 0.030 ± 0.007^b,dg,i μmol/g (w.w.) | cerebral TYR concentration [1]: 0.15 ± 0.03 µmol/g (w.w.) | cerebral VAL concentration [1]: 0.042 ± 0.011 µmol/g (w.w.) | cerebral ALA concentration [2]: 0.52 ± 0.24^a,e μmol/g (w.w.) | cerebral ARG concentration [2]: 0.16 ± 0.03 µmol/g (w.w.) | cerebral ASN concentration [2]: 0.13 ± 0.03^i μmol/g (w.w.) | cerebral ASP concentration [2]: 2.94 ± 0.98^f,j μmol/g (w.w.) | cerebral CITR concentration [2]: 0.018 ± 0.008 µmol/g (w.w.) | cerebral GABA concentration [2]: 1.60 ± 0.24^a μmol/g (w.w.) | cerebral GLN concentration [2]: 3.66 ± 0.41 µmol/g (w.w.) | cerebral GLU concentration [2]: 9.93 ± 1.56^e,i μmol/g (w.w.) | cerebral GLY concentration [2]: 0.71 ± 0.16^f,i μmol/g (w.w.) | cerebral HIS concentration [2]: 0.055 ± 0.019 µmol/g (w.w.) | cerebral ILE concentration [2]: 0.048 ± 0.017^a μmol/g (w.w.) | cerebral L-Cystat concentration [2]: 0.173 ± 0.038^b,f,i μmol/g (w.w.) | cerebral LEU concentration [2]: 0.018 ± 0.004 µmol/g (w.w.) | cerebral LYS concentration [2]: 0.32 ± 0.04^a,e,i μmol/g (w.w.) | cerebral MET concentration [2]: 0.022 ± 0.006^b,e,i μmol/g (w.w.) | cerebral ORN concentration [2]: 0.011 ± 0.005 µmol/g (w.w.) | cerebral PHE concentration [2]: 0.028 ± 0.010 µmol/g (w.w.) | cerebral SAH concentration [2]: 0.026 ± 0.010^f,i μmol/g (w.w.) | cerebral SER concentration [2]: 0.71 ± 0.28^b μmol/g (w.w.) | cerebral TAU concentration [2]: 3.80 ± 1.19 µmol/g (w.w.) | cerebral THR concentration [2]: 0.66 ± 0.23 µmol/g (w.w.) | cerebral TRP concentration [2]: 0.015 ± 0.006 µmol/g (w.w.) | cerebral TYR concentration [2]: 0.172 ± 0.046^b,f μmol/g (w.w.) | cerebral VAL concentration [2]: 0.057 ± 0.017 µmol/g (w.w.) | cerebral ALA concentration [3]: 0.57 ± 0.28^a,e μmol/g (w.w.) | cerebral ARG concentration [3]: 0.14 ± 0.02 µmol/g (w.w.) | cerebral ASN concentration [3]: 0.18 ± 0.02^a μmol/g (w.w.) | cerebral ASP concentration [3]: 4.46 ± 0.70^a,f μmol/g (w.w.) | cerebral CITR concentration [3]: 0.020 ± 0.006 µmol/g (w.w.) | cerebral GABA concentration [3]: 1.85 ± 0.65^a μmol/g (w.w.) | cerebral GLN concentration [3]: 3.98 ± 0.34 µmol/g (w.w.) | cerebral GLU concentration [3]: 13.58 ± 1.28^a μmol/g (w.w.) | cerebral GLY concentration [3]: 1.05 ± 0.13^a,f μmol/g (w.w.) | cerebral HIS concentration [3]: 0.047 ± 0.021 µmol/g (w.w.) | cerebral ILE concentration [3]: 0.041 ± 0.016^b μmol/g (w.w.) | cerebral L-Cystat concentration [3]: 0.26 ± 0.05^a,f μmol/g (w.w.) | cerebral LEU concentration [3]: 0.024 ± 0.032^b,f μmol/g (w.w.) | cerebral LYS concentration [3]: 0.179 ± 0.036 µmol/g (w.w.) | cerebral MET concentration [3]: 0.009 ± 0.004^b μmol/g (w.w.) | cerebral ORN concentration [3]: 0.017 ± 0.009^a,e μmol/g (w.w.) | cerebral PHE concentration [3]: 0.033 ± 0.011^b μmol/g (w.w.) | cerebral SAH concentration [3]: 0.050 ± 0.013^a μmol/g (w.w.) | cerebral SER concentration [3]: 0.93 ± 0.27^a,e μmol/g (w.w.) | cerebral TAU concentration [3]: 4.49 ± 0.43^a μmol/g (w.w.) | cerebral THR concentration [3]: 0.75 ± 0.24^a,e μmol/g (w.w.) | cerebral TRP concentration [3]: 0.012 ± 0.007 µmol/g (w.w.) | cerebral TYR concentration [3]: 0.21 ± 0.05^f μmol/g (w.w.) | cerebral VAL concentration [3]: 0.040 ± 0.016^b μmol/g (w.w.) | increase in cerebral glutamate (GLU) induced by sTBI (drug administered early post-injury (30 min following sTBI), 15 mg/kg s.c.): remarkable inhibition | efficacy on glutamate excitotoxicity marker (drug injected at 3 days after sTBI): no efficacy | compounds of the methyl cycle (Met, L-Cystat, SAH) (rat brain after sTBI, 15 mg/kg s.c.): significant beneficial effects
